Reference: ChEMBL document CHEMBL4052693, “1,2,4-Triazole and 1,3,4-oxadiazole analogues: Synthesis, MO studies, in silico molecular docking studies, antimalarial as DHFR inhibitor and antimicrobial activities” (Bioorg Med Chem, 2017)
Values after ≈ are worked out from the molar mass of the structure shown. Active and inactive are the calls of the source. No cut-off for these calls is given here.

What was measured:
Streptococcus pyogenes = assay: Antimicrobial activity against Streptococcus pyogenes MTCC 442 incubated for overnight by broth micro dilution method; type: functional
Escherichia coli = assay: Antimicrobial activity against Escherichia coli MTCC 443 incubated for overnight by broth micro dilution method; type: functional
Staphylococcus aureus = assay: Antimicrobial activity against Staphylococcus aureus MTCC 96 incubated for overnight by broth micro dilution method; type: functional
Pseudomonas aeruginosa = assay: Antimicrobial activity against Pseudomonas aeruginosa MTCC 1688 incubated for overnight by broth micro dilution method; type: functional
[1] = Cytotoxicity against Schizosaccharomyces pombe Var. Paul Linder 3360 assessed as cell viability at 8 ug/ml after 16 to 18 hrs by trypan blue staining-based compound microscopic analysis (reference value: 93.67 +/- 1.53%); details: Schizosaccharomyces pombe Var. Paul Linder 3360 cells, read-out: Activity
Plasmodium falciparum = assay: Antimalarial activity against Plasmodium falciparum ring stage forms after 48 hrs; type: functional
[2] = tested on: Schizosaccharomyces pombe; assay: Genotoxicity in Schizosaccharomyces pombe Var. Paul Linder 3360 assessed as DNA damage at 2 to 10 ug/ml after 17 to 18 hrs by agarose gel electrophoresis analysis
[3] = Cytotoxicity against Schizosaccharomyces pombe Var. Paul Linder 3360 assessed as cell viability at 10 ug/ml after 16 to 18 hrs by trypan blue staining-based compound microscopic analysis (reference value: 93.67 +/- 1.53%); details: Schizosaccharomyces pombe Var. Paul Linder 3360 cells, read-out: Activity
[4] = Cytotoxicity against Schizosaccharomyces pombe Var. Paul Linder 3360 assessed as cell viability at 4 ug/ml after 16 to 18 hrs by trypan blue staining-based compound microscopic analysis (reference value: 93.67 +/- 1.53%); details: Schizosaccharomyces pombe Var. Paul Linder 3360 cells, read-out: Activity
Aspergillus clavatus [5] = assay: Antifungal activity against Aspergillus clavatus MTCC 1323 incubated for overnight by broth micro dilution method; type: functional
Candida albicans = assay: Antifungal activity against Candida albicans MTCC 227 incubated for overnight by broth micro dilution method; type: functional
[6] = Cytotoxicity against Schizosaccharomyces pombe Var. Paul Linder 3360 assessed as cell viability at 6 ug/ml after 16 to 18 hrs by trypan blue staining-based compound microscopic analysis (reference value: 93.67 +/- 1.53%); details: Schizosaccharomyces pombe Var. Paul Linder 3360 cells, read-out: Activity
[7] = Cytotoxicity against Schizosaccharomyces pombe Var. Paul Linder 3360 assessed as cell viability at 2 ug/ml after 16 to 18 hrs by trypan blue staining-based compound microscopic analysis (reference value: 93.67 +/- 1.53%); details: Schizosaccharomyces pombe Var. Paul Linder 3360 cells, read-out: Activity
Dihydrofolate reductase = molecular target: T1, Dihydrofolate reductase (Bos taurus, UniProt P00376); assay: Inhibition of bovine liver DHFR pre-incubated 2 mins before dihydrofolic acid substrate addition and measured over 10 mins in presence of NADPH
T1 sequence (P00376 whole entry): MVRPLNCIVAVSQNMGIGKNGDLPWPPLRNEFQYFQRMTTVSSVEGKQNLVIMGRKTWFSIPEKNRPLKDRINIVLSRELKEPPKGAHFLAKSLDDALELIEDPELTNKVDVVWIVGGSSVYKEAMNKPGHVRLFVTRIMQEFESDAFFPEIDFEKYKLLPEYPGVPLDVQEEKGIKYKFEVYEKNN

Aspergillus clavatus [8] = details: MTCC 1323

Molecule	MIC99 (Streptococcus pyogenes) [µM]	MIC99 (Escherichia coli) [µM]	MIC99 (Staphylococcus aureus) [µM]	MIC99 (Pseudomonas aeruginosa) [µM]	viability at 8 ug/ml [1] [%]	IC50 (Plasmodium falciparum) [nM]	Activity [2]	viability at 10 ug/ml [3] [%]	viability at 4 ug/ml [4] [%]	MIC99 (Aspergillus clavatus [5]) [µM]	MIC99 (Candida albicans)	viability at 6 ug/ml [6] [%]	viability at 2 ug/ml [7] [%]	IC50 (Dihydrofolate reductase) [nM]	MIC99 (Aspergillus clavatus [8])
O=C(O)c1cn(C2CC2)c2cc(N3CCNCC3)c(F)cc2c1=O [CIPROFLOXACIN]	151 (≈ 50 µg/mL)	75 (≈ 24.9 µg/mL)	151 (≈ 50 µg/mL)	75 (≈ 24.9 µg/mL)											
COc1ccc(/C=N/c2ccc(-c3nnc(S)o3)cc2)cc1	804 (≈ 250 µg/mL)	643 (≈ 200 µg/mL)	804 (≈ 250 µg/mL)	402 (≈ 125 µg/mL)	63.7	790	Toxic	49	72.3	1610 (≈ 500 µg/mL)	3220 µM (≈ 1000 µg/mL)	68	80.3		
Oc1ccc(/C=N/c2ccc(-c3nnc(S)n3/N=C/c3ccc(O)cc3)cc2)cc1	482 (≈ 200 µg/mL)	241 (≈ 100 µg/mL)	602 (≈ 250 µg/mL)	602 (≈ 250 µg/mL)	77	282	Toxic	72.3	79.7		inactive	78.7	84.7	49.5	inactive
O=C(N[C@H](CO)[C@H](O)c1ccc([N+](=O)[O-])cc1)C(Cl)Cl [CHLORAMPHENICOL]	155 (≈ 50.1 µg/mL)	155 (≈ 50.1 µg/mL)	155 (≈ 50.1 µg/mL)	155 (≈ 50.1 µg/mL)											
Sc1nnc(-c2ccc(/N=C/c3ccc(Cl)cc3)cc2)o1	397 (≈ 125 µg/mL)	635 (≈ 201 µg/mL)	794 (≈ 251 µg/mL)	397 (≈ 125 µg/mL)	54.7	301	Toxic	47	73.3		inactive	64.7	81.3	45	inactive
Oc1ccc(/C=N/c2ccc(-c3nnc(S)o3)cc2)cc1	673 (≈ 200 µg/mL)	421 (≈ 125 µg/mL)	673 (≈ 200 µg/mL)	842 (≈ 250 µg/mL)	67	822	Toxic	45.3	78.3		inactive	72	82.3		inactive
Sc1nnc(-c2ccc(/N=C/c3cccs3)cc2)n1/N=C/c1cccs1	506 (≈ 200 µg/mL)	316 (≈ 125 µg/mL)	633 (≈ 250 µg/mL)	633 (≈ 250 µg/mL)	70.7	815	Toxic	63.3	82		2530 µM (≈ 1000 µg/mL)	75.3	87.7		inactive
O=[N+]([O-])c1cccc(/C=N/c2ccc(-c3nnc(S)n3/N=C/c3cccc([N+](=O)[O-])c3)cc2)c1	132 (≈ 62.5 µg/mL)	423 (≈ 200 µg/mL)	264 (≈ 125 µg/mL)	528 (≈ 250 µg/mL)	65.3	245	Toxic	59.7	80	2110 (≈ 1000 µg/mL)	1060 µM (≈ 500 µg/mL)	73.7	87	25.9	
Sc1nnc(-c2ccc(/N=C/c3cccs3)cc2)o1	348 (≈ 100 µg/mL)	436 (≈ 125 µg/mL)	697 (≈ 200 µg/mL)	871 (≈ 250 µg/mL)	61	802	Toxic	52.7	70.7		inactive	66.3	74.3		inactive
NYSTATIN											108 µM				108 µM
COC1=CC(=O)C[C@@H](C)[C@]12Oc1c(Cl)c(OC)cc(OC)c1C2=O [GRISEOFULVIN]										284 (≈ 100 µg/mL)	1420 µM (≈ 501 µg/mL)				
CC1(C)S[C@@H]2[C@H](NC(=O)[C@H](N)c3ccccc3)C(=O)N2[C@H]1C(=O)O [AMPICILLIN]	286 (≈ 99.9 µg/mL)	286 (≈ 99.9 µg/mL)	716 (≈ 250 µg/mL)	286 (≈ 99.9 µg/mL)											
O=[N+]([O-])c1cccc(/C=N/c2ccc(-c3nnc(S)o3)cc2)c1	307 (≈ 100 µg/mL)	613 (≈ 200 µg/mL)	383 (≈ 125 µg/mL)	613 (≈ 200 µg/mL)	56.7	806	Toxic	46.3	74.3	1530 (≈ 501 µg/mL)	1530 µM (≈ 501 µg/mL)	65.7	78.3		
CCN(CC)CCCC(C)Nc1ccnc2cc(Cl)ccc12 (configuration not stated) [CHLOROQUINE]														30.1	
Nc1ccc(-c2nnc(S)o2)cc1	518 (≈ 100 µg/mL)	518 (≈ 100 µg/mL)	324 (≈ 62.6 µg/mL)	1300 (≈ 250 µg/mL)	71	810	Toxic	68.3	83	1300 (≈ 250 µg/mL)	2590 µM (≈ 500 µg/mL)	76	87.3		
COc1ccc(/C=N/c2ccc(-c3nnc(S)n3/N=C/c3ccc(OC)cc3)cc2)cc1	226 (≈ 100 µg/mL)	282 (≈ 125 µg/mL)	564 (≈ 250 µg/mL)	564 (≈ 250 µg/mL)	52.7	835	Toxic	38.7	64.3	1130 (≈ 500 µg/mL)	1130 µM (≈ 500 µg/mL)	59	79		
CCn1cc(C(=O)O)c(=O)c2cc(F)c(N3CCNCC3)cc21 [NORFLOXACIN]	31 (≈ 9.9 µg/mL)	31 (≈ 9.9 µg/mL)	31 (≈ 9.9 µg/mL)	31 (≈ 9.9 µg/mL)											
Nc1ccc(-c2nnc(S)n2N)cc1	1210 (≈ 250 µg/mL)	1210 (≈ 250 µg/mL)	1210 (≈ 250 µg/mL)	966 (≈ 200 µg/mL)	75.7	960	Toxic	67	85.7	2420 (≈ 501 µg/mL)	4830 µM (≈ 1000 µg/mL)	82	91.3		
Sc1nnc(-c2ccc(/N=C/c3ccc(Cl)cc3)cc2)n1/N=C/c1ccc(Cl)cc1	222 (≈ 100 µg/mL)	554 (≈ 251 µg/mL)	554 (≈ 251 µg/mL)	222 (≈ 100 µg/mL)	55.7	230	Toxic	47	72.3		inactive	62.3	83.3	34.9	inactive
CCc1nc(N)nc(N)c1-c1ccc(Cl)cc1 [PYRIMETHAMINE]						1000									
